Patent US11026991B2, “Compositions and methods of use thereof to promote muscle growth and function” (Worlds Greatest Ingredients, LP, priority 2018, dated 2021)

Experiments:
[1] = set-up: species or system human; details: in vivo
Experimental: Another exemplary study was done on a subject. The subject reported to the laboratory after an eight hour fast. Following and eight hour fast, the subject was given a standardized meal plan for two days prior to testing. The subject had their resting heart rate, blood pressure, body mass, height, and body measured using DEXA. Additionally, a urine sample was taken for baseline assessment of clinical safety, amino acid retention, and hydration status. A venous blood sample (10 mL) was be collected from a forearm vein prior to the subject being administrated, in a double-blind fashion a single dose of either leucine (2-gram dose), dileucine (2-gram dose) or leucine (1 grams)+dileucine (1 grams). Subsequent venous blood samples were to be collected 30, 60, 90, 120 and 240 minutes after ingestion of their assigned composition. After blood samples were taken the subject was given 250 mL of cold water to ingest. A second urine sample was taken at 240 minutes after ingestion of the composition. The methodology is shown schematically in FIG. 12.
All blood samples were processed to allow for determination of amino acid concentrations. […]
Plasma essential amino acids (threonine, methionine, lysine, histidine, valine, tryptophan, leucine, phenylalanine, isoleucine) were analyzed by LC/MS/MS and plasma dileucine was analyzed by GC/MS.

[2] = Case study: plasma amino acids after ingestion of 2 g di-leucine (Ce) or 2 g leucine (C4); details: for increase in plasma lysine, times greater than the other condition: Ce over C4
Experimental: The subject came into the laboratory fasted prior to the testing days. […] On Day 1, they were randomized to consume 1 of the 2 conditions. Following, consumption of the fluid mixture (8 oz. water), plasma amino acids were measured at 30, 60, 90, and 120 minutes. A 72-hour washout took place followed by the 2nd condition following the same procedures.
The dosage used in this study was either 2 grams of di-leucine (condition Ce) or 2 grams of leucine (condition C4).

muscle protein synthesis = assay: Muscle protein synthesis from vastus lateralis biopsies (L-[ring-13C6]-phenylalanine incorporation); assay type: in vivo, human; details: 180 minutes post challenge, 2 g, versus subjects receiving leucine
Experimental: Another exemplary study was done to measure muscle protein synthesis. Two subjects came to the laboratory after a seven hour, overnight fast. A baseline blood sample was taken. Then a primed (2.0 μmol·kg−1), continuous infusion (0.05 μmol·kg−1·min−1) of L-[ring-13C6]-phenylalanine and L-[15N]-phenylalanine was started in one catheter.
Isotopes (from Cambridge Isotopes Inc., Andover, Mass.) were dissolved in 0.9% saline, filtered through a 0.2-μm filter, and infused using a calibrated syringe pump (from Harvard Apparatus, Holliston, Mass.). After obtaining steady-state enrichment, the L-[15N]-phenylalanine tracer infusion was stopped at t=0.
Repeated muscle biopsy sampling was done throughout the infusion trial for the determination of muscle protein synthesis (based on L-[ring-13C6]-phenylalanine incorporation) before and after the ingestion of 2 g leucine or 2 g dileucine. Biopsies (˜100 mg wet weight) were obtained from the middle region of the vastus lateralis under anesthetic (Lidocaine HCl 1%) with a 5 mm Bergstrom needle custom-modified for manual suction. A schematic representation of the experimental protocol can be found in FIG. 15.

CC(C)C[C@H](NC(=O)[C@@H](N)CC(C)C)C(=O)O [Ce, L-Leucyl-L-leucine]
plasma dileucine levels [1]: measurable increases
increases in total EAA concentration relative to baseline (range) ([2]; 30 and 60 mPost): 7.2% to 26.9%
increase in total EAA concentration, times greater than Condition C4 ([2]; 30 mPost): 4 ×
increase in total plasma BCAAs, times greater than Condition C4 ([2]; 30 mPost): 2.9 ×
Plasma Isoleucine Delta Change Relative to Baseline Values ([2]; 30 mPost ingestion of 2 g): -11.31 nmol/L
Plasma Isoleucine Percent Change Relative to Baseline Values ([2]; 30 mPost ingestion of 2 g): −16.0%
Plasma Lysine Delta Change Relative to Baseline Values ([2]; 30 mPost ingestion of 2 g): 39.97 nmol/L
Plasma Lysine Percent Change Relative to Baseline Values ([2]; 30 mPost ingestion of 2 g): 29.7%
Plasma Methionine Delta Change Relative to Baseline Values ([2]; 30 mPost ingestion of 2 g): 2.32 µM
Plasma Methionine Percent Change Relative to Baseline Values ([2]; 30 mPost ingestion of 2 g): 10.1%
Plasma Phenylalanine Delta Change Relative to Baseline Values ([2]; 30 mPost ingestion of 2 g): 3.55 nmol/L
Plasma Phenylalanine Percent Change Relative to Baseline Values ([2]; 30 mPost ingestion of 2 g): 6.0%
Plasma Threonine Delta Change Relative to Baseline Values ([2]; 30 mPost ingestion of 2 g): 7.09 µM
Plasma Tryptophan Delta Change Relative to Baseline Values ([2]; 30 mPost ingestion of 2 g): -0.83 nmol/L
Plasma Tryptophan Percent Change Relative to Baseline Values ([2]; 30 mPost ingestion of 2 g): −1.3%
Plasma Valine Delta Change Relative to Baseline Values ([2]; 30 mPost ingestion of 2 g): -13.31 nmol/L
Plasma Valine Percent Change Relative to Baseline Values ([2]; 30 mPost ingestion of 2 g): −3.6%
Total Plasma BCAA Delta Change Relative to Baseline Values ([2]; 30 mPost ingestion of 2 g): 213 µM
Total Plasma BCAA Percent Change Relative to Baseline Values ([2]; 30 mPost ingestion of 2 g): 35.7%
Total Plasma EAA Delta Change Relative to Baseline Values ([2]; 30 mPost ingestion of 2 g): 265.57 nmol/L
Total Plasma EAA Percent Change Relative to Baseline Values ([2]; 30 mPost ingestion of 2 g): 26.9%
increase in plasma lysine, times greater than the other condition ([2]; 30 mPost): 2.8 ×
Plasma Isoleucine Delta Change Relative to Baseline Values ([2]; 60 mPost ingestion of 2 g): -14.21 nmol/L
Plasma Isoleucine Percent Change Relative to Baseline Values ([2]; 60 mPost ingestion of 2 g): −20.1%
Plasma Lysine Delta Change Relative to Baseline Values ([2]; 60 mPost ingestion of 2 g): 41.31 nmol/L
Plasma Lysine Percent Change Relative to Baseline Values ([2]; 60 mPost ingestion of 2 g): 30.7%
Plasma Methionine Delta Change Relative to Baseline Values ([2]; 60 mPost ingestion of 2 g): 1.01 µM
Plasma Methionine Percent Change Relative to Baseline Values ([2]; 60 mPost ingestion of 2 g): 4.4%
Plasma Phenylalanine Delta Change Relative to Baseline Values ([2]; 60 mPost ingestion of 2 g): 2.02 nmol/L
Plasma Phenylalanine Percent Change Relative to Baseline Values ([2]; 60 mPost ingestion of 2 g): 3.4%
Plasma Threonine Delta Change Relative to Baseline Values ([2]; 60 mPost ingestion of 2 g): 6.11 µM
Plasma Tryptophan Delta Change Relative to Baseline Values ([2]; 60 mPost ingestion of 2 g): -5.10 nmol/L
Plasma Tryptophan Percent Change Relative to Baseline Values ([2]; 60 mPost ingestion of 2 g): −7.9%
Plasma Valine Delta Change Relative to Baseline Values ([2]; 60 mPost ingestion of 2 g): -52.63 nmol/L
Plasma Valine Percent Change Relative to Baseline Values ([2]; 60 mPost ingestion of 2 g): −14.1%
Total Plasma BCAA Delta Change Relative to Baseline Values ([2]; 60 mPost ingestion of 2 g): 26 µM
Total Plasma BCAA Percent Change Relative to Baseline Values ([2]; 60 mPost ingestion of 2 g): 4.3%
Total Plasma EAA Delta Change Relative to Baseline Values ([2]; 60 mPost ingestion of 2 g): 71.33 nmol/L
Total Plasma EAA Percent Change Relative to Baseline Values ([2]; 60 mPost ingestion of 2 g): 7.2%
increase in plasma lysine, times greater than the other condition ([2]; 60 mPost): 5.7 ×
Plasma Isoleucine Delta Change Relative to Baseline Values ([2]; 90 mPost ingestion of 2 g): -26.67 nmol/L
Plasma Isoleucine Percent Change Relative to Baseline Values ([2]; 90 mPost ingestion of 2 g): −37.7%
Plasma Lysine Delta Change Relative to Baseline Values ([2]; 90 mPost ingestion of 2 g): -25.31 nmol/L
Plasma Lysine Percent Change Relative to Baseline Values ([2]; 90 mPost ingestion of 2 g): −18.8%
Plasma Methionine Delta Change Relative to Baseline Values ([2]; 90 mPost ingestion of 2 g): -0.00173 µM
Plasma Methionine Percent Change Relative to Baseline Values ([2]; 90 mPost ingestion of 2 g): −7.5%
Plasma Phenylalanine Delta Change Relative to Baseline Values ([2]; 90 mPost ingestion of 2 g): -5.98 nmol/L
Plasma Phenylalanine Percent Change Relative to Baseline Values ([2]; 90 mPost ingestion of 2 g): −10.1%
Plasma Threonine Delta Change Relative to Baseline Values ([2]; 90 mPost ingestion of 2 g): -0.0034 µM
Plasma Threonine Percent Change Relative to Baseline Values ([2]; 90 mPost ingestion of 2 g): −3.2%
Plasma Tryptophan Delta Change Relative to Baseline Values ([2]; 90 mPost ingestion of 2 g): -6.60 nmol/L
Plasma Tryptophan Percent Change Relative to Baseline Values ([2]; 90 mPost ingestion of 2 g): −10.2%
Plasma Valine Delta Change Relative to Baseline Values ([2]; 90 mPost ingestion of 2 g): -79.42 nmol/L
Plasma Valine Percent Change Relative to Baseline Values ([2]; 90 mPost ingestion of 2 g): −21.3%
Total Plasma BCAA Delta Change Relative to Baseline Values ([2]; 90 mPost ingestion of 2 g): -0.07162 µM
Total Plasma BCAA Percent Change Relative to Baseline Values ([2]; 90 mPost ingestion of 2 g): −12.0%
Total Plasma EAA Delta Change Relative to Baseline Values ([2]; 90 mPost ingestion of 2 g): -114.65 nmol/L
Total Plasma EAA Percent Change Relative to Baseline Values ([2]; 90 mPost ingestion of 2 g): −11.6%
Plasma Isoleucine Delta Change Relative to Baseline Values ([2]; 120 mPost ingestion of 2 g): -24.37 nmol/L
Plasma Isoleucine Percent Change Relative to Baseline Values ([2]; 120 mPost ingestion of 2 g): −34.4%
Plasma Lysine Delta Change Relative to Baseline Values ([2]; 120 mPost ingestion of 2 g): 25.68 nmol/L
Plasma Lysine Percent Change Relative to Baseline Values ([2]; 120 mPost ingestion of 2 g): 19.1%
Plasma Methionine Delta Change Relative to Baseline Values ([2]; 120 mPost ingestion of 2 g): -0.00168 µM
Plasma Methionine Percent Change Relative to Baseline Values ([2]; 120 mPost ingestion of 2 g): −7.3%
Plasma Phenylalanine Delta Change Relative to Baseline Values ([2]; 120 mPost ingestion of 2 g): -1.89 nmol/L
Plasma Phenylalanine Percent Change Relative to Baseline Values ([2]; 120 mPost ingestion of 2 g): −3.2%
Plasma Threonine Delta Change Relative to Baseline Values ([2]; 120 mPost ingestion of 2 g): -0.00207 µM
Plasma Threonine Percent Change Relative to Baseline Values ([2]; 120 mPost ingestion of 2 g): −1.9%
Plasma Tryptophan Delta Change Relative to Baseline Values ([2]; 120 mPost ingestion of 2 g): -13.23 nmol/L
Plasma Tryptophan Percent Change Relative to Baseline Values ([2]; 120 mPost ingestion of 2 g): −20.5%
Plasma Valine Delta Change Relative to Baseline Values ([2]; 120 mPost ingestion of 2 g): -85.53 nmol/L
Plasma Valine Percent Change Relative to Baseline Values ([2]; 120 mPost ingestion of 2 g): −22.9%
Total Plasma BCAA Delta Change Relative to Baseline Values ([2]; 120 mPost ingestion of 2 g): -0.06614 µM
Total Plasma BCAA Percent Change Relative to Baseline Values ([2]; 120 mPost ingestion of 2 g): −11.1%
Total Plasma EAA Delta Change Relative to Baseline Values ([2]; 120 mPost ingestion of 2 g): -59.34 nmol/L
Total Plasma EAA Percent Change Relative to Baseline Values ([2]; 120 mPost ingestion of 2 g): −6.0%
myofibrillar FSR (muscle protein synthesis) (muscle protein synthesis): significantly increased
